Laboratory results reported in patent US20130310407A1, “COMBINATIONS COMPRISING MACITENTAN FOR THE TREATMENT OF GLIOBLASTOMA MULTIFORME” (ACTELION PHARMACEUTICALS LTD., priority 2011, published 2013).

Tests used:
[1] = system: LN229 human glioblastoma cells; test: LN229 human glioblastoma cells stereotactically injected into nude mice brain: treatment with macitentan and temozolomide (Example 1); type: in vivo; conditions: nude mice with intracerebral LN229; treatment from two weeks after injection; temozolomide 7.5 mg/kg oral daily one week on/two weeks off; macitentan 10 mg/kg oral daily; day 100
Method: (§1) Forty-eight (48) female Swiss Nude mice were obtained from Charles River (France). […] Animal experiments were performed according to the European ethical guidelines of animal experimentation.
The mice were monitored daily and euthanized when they developed neurologic symptoms or became moribund. Days of survival were recorded and brain tissues were harvested and processed for histologic examinations. The experiment was terminated on day 100.

[2] = system: phosphorylated AKT and MAPK; test: Immunohistochemistry of tumors using antibodies against phosphorylated AKT and MAPK; type: in vivo, mice; conditions: tumors of treated animals, Examples 1 and 2 (macitentan) and Example 3 (atrasentan, zibotentan)
Text: Suppression of survival and proliferation pathways sensitizes cells to chemotherapy and could be the reason for the high effectiveness of macitentan in combination with chemotherapy.

[3] = system: LN229 human glioblastoma cells; test: LN229 human glioblastoma cells stereotactically injected into nude mice brain: treatment with macitentan and paclitaxel (Example 2); type: in vivo; conditions: nude mice with intracerebral LN229, paclitaxel 8.5 mg/kg intraperitoneal weekly, macitentan 10 mg/kg oral daily
Method: as §1

Compound | survival rate after 100 days [1] | reduction of phosphorylated AKT and MAPK in tumors (immunohistochemistry) [2] | survival after 70 days [3]
Cn1nnc2c(C(N)=O)ncn2c1=O [TMZ, temozolomide] | about 40% | – | –
CCCNS(=O)(=O)Nc1ncnc(OCCOc2ncc(Br)cn2)c1-c1ccc(Br)cc1 [macitentan] | about 40% | strong reduction of both proteins | about 60%
CC(=O)O[C@H]1C(=O)[C@@]2(C)[C@H]([C@H](OC(=O)c3ccccc3)[C@]3(O)C[C@H](OC(=O)[C@H](O)[C@@H](NC(=O)c4ccccc4)c4ccccc4)C(C)=C1C3(C)C)[C@]1(OC(C)=O)CO[C@@H]1C[C@@H]2O [PTL, paclitaxel] | – | – | about 60%
CCCCN(CCCC)C(=O)CN1C[C@H](c2ccc3c(c2)OCO3)[C@@H](C(=O)O)[C@@H]1c1ccc(OC)cc1 [Atrasentan, atrasentan] | – | much less prominent | –
COc1nc(C)cnc1NS(=O)(=O)c1cccnc1-c1ccc(-c2nnco2)cc1 [Zibotentan, zibotentan] | – | much less prominent | –
